Assay results taken from US9427444B2, “Pharmaceutical and cosmetic compositions for accelerated healing of wounds and other surface damages” (MITOTECH SA, priority 2007, dated 2016).

Tests used:
[1] = tested on: human fibroblast monolayer; test: Human fibroblast monolayer damage, model of wound in vitro; format: cell-based
Description: Human fibroblast monolayer damage—is a model of wound in vitro, as fibroblasts are basement of connective tissue, which structure falls with any injury or damage. It is known that fibroblasts are one of the first to enter wounded area that considerably determines its healing. Fibroblast monolayer was damaged with sterile scalpel; as a result a 2000 micron wide distant break appeared. Ability of fibroblasts to heal the wound was estimated by length of cell migration zone, appeared during certain time period (1 day) inside the wound. Cell migration zone length depends directly on healing speed of artificially given wound. Results of several different SkQ1 concentrations test are shown on FIG. 4.

LAR epithelial cell line = test: Epithelial layer movement into the wound in vitro; format: cell-based
Description: Along with fibroblast movement and contraction, in wound healing a formation plays an important role of new epithelial layers in the wound—so called reepithalialization. Study on this process in vitro was carried out using LAR epithelial cell line. […] Ability of cell to form tight “islands” and single epithelial layer also weren't disturbed. Studies on expression of intracellular contact protein E-cadherin specific for epithelium confirmed epithelial structure stability in presence of SkQ1. […] This effect was studied in vitro using the same mode that was used in fibroblast studies. […] Unlike fibroblasts, epithelial cells moved into the wound in a single layer with all characteristic morphology and intracellular contacts.

[2] = tested on: human subdermal diploid fibroblasts; test: Differentiation of human subdermal fibroblasts into myofibroblasts (cell square, unstriped muscle actin, vinculin contacts); format: cell-based
Description: Myofibroblasts emerge as result of normal fibroblast differentiation and in comparison to them have bigger size, better adherence to the substrate (in vivo to extracellular matrix, in vitro to plastic), different cytoskeleton structure and contractive activity.
Main myofibroblast marker is unstriped muscle actin form, which mediates its contraction activity and almost never can be found in normal fibroblasts.
Better adherence to the substrate is also a characteristic feature of myofibroblasts, it promotes its movement into wound and brace of wound edges. In our experiments we estimated number of tight contacts between cell and substrate, containing special focal adhesion protein vinculin.
It is important to notice that short incubation with SkQ1 for 1-2 hours is enough for induction of this transformation, and further a population of myofibroblasts is supported in a media without SkQ1 for at least 4-6 weeks.

fibroblast culture = test: IF staining of cytoskeleton and fibronectin in fibroblast culture treated with SkQ1; format: cell-based, human
Description: It points to contraction activity and cell movement enhancement. […] This was done by IF staining of actin and myosin in fibroblast stress-fibrils, treated with SkQ1 and from control group.
Further on we analyzed a consistence of main extracellular matrix protein fibronectin in fibroblast culture, treated with SkQ1. […] Fibronectinic matrix forms as a result of both cell secretion and reorganization of matrix components present in culture in formation of serum. Fibronectin produced by fibroblasts has certain structural alterity that gives a possibility to construct selective antibodies.

In the case of CC1=C(C)C(=O)C(CCCCCCCCCC[P+](c2ccccc2)(c2ccccc2)c2ccccc2)=CC1=O.[Br-] [SkQ1], the “length of cell migration zone inside the wound” value ([1]; 1 day, 2000 micron wide break, FIG. 4) is reported as “short period incubation with SkQ1 caused effect, which continued for a long time even without SkQ1”, the “number of cell rows entered to the wound” value ([1]; 24 hours, FIG. 5) is reported as “Injury healing acceleration” and the “actinic stress-fibrils in the cells” value (LAR epithelial cell line) is reported as “significantly raised”. For the same molecule, the “cell movement into the wound” value (LAR epithelial cell line) was “significantly accelerates cell movement into the wound”, the “morphological changes of epithelial cells” value (LAR epithelial cell line) was “didn't cause significant morphological changes” and the “persistence of effect on epithelial cells after drug withdrawal” value (LAR epithelial cell line) was “continued long after drug withdrawal”. The “incubation time enough for induction of transformation into myofibroblasts” value [2] was 1 to 2 h, the “average square value increase” value ([2]; SkQ1 20 nM, whole population) was “increases more then two-three fold” and the “number of vinculin-containing contacts per cell” value ([2]; SkQ1 treated versus control cells, FIG. 3) was “increase of number of contacts per cell”. For the same molecule, the “average square of significant group of cells over control value (cell size distribution)” value ([2]; SkQ1 treatment, FIG. 2) was 5-6 fold, the “unstriped muscle actin form (IF staining) in giant cells versus normal fibroblasts” value ([2]; after SkQ1 treatment) was “heavy increase” and the “time myofibroblast population is supported in media without SkQ1” value ([2]; after short incubation with SkQ1) was 4-6 weeks. For the same molecule, the “cell skeleton reorganization, stress-fibrils” value (fibroblast culture; IF staining of actin and myosin) was “active cell skeleton reorganization with stress-fibril enhancement”, the “fibronectin level (IF staining)” value (fibroblast culture; monolayer areas and cell migration zone) was “significant increase” and the “intracellular expression of fibronectin” value (fibroblast culture; selective antibodies to fibroblast fibronectin) was “raises”.
